Laboratory results reported in patent US20250152585A1, “PHARMACEUTICAL COMPOUND” (Duke Street Bio Limited, priority 2022, published 2025).
Read-outs that look alike come from different tables or passages of the source.

Assays:
[1] = biological target: T1, full length N-terminally FLAG-tagged PARP1 (Homo sapiens, UniProt P09874); experiment: PARP1 biochemical DELFIA assay (auto-PARylation); parameters: recombinant full length human N-terminally FLAG-tagged PARP1
[2] = biological target: T2, N-terminally FLAG-tagged PARP2 (amino acids 1-583) (Homo sapiens, UniProt Q9UGN5); experiment: PARP2 probe displacement HTRF assay; assay type: binding; conditions: binned Kd
T2 construct: N-terminally FLAG-tagged PARP2 (amino acids 1-583)
Experimental: Data analysis was performed identical as for PARP1.

[3] = biological target: T1, full length N-terminally FLAG-tagged PARP1; experiment: PARP1 probe displacement HTRF assay; conditions: for Selectivity: PARP1 over PARP2, ratio Kd (PARP2)/Kd (PARP1); for Kd: binned Kd
[4] = binned IC50, biochemical auto-PARylation assay
[5] = read-out: PARP1 HTRF, probe displacement HTRF
[6] = binned IC50, PARP1 biochemical DELFIA assay
[7] = read-out: PARP1 HTRF, PARP1 probe displacement HTRF
[8] = PARP1 HTRF, PARP1 probe displacement HTRF

T1 sequence (P09874 whole entry, the tested form may be a part): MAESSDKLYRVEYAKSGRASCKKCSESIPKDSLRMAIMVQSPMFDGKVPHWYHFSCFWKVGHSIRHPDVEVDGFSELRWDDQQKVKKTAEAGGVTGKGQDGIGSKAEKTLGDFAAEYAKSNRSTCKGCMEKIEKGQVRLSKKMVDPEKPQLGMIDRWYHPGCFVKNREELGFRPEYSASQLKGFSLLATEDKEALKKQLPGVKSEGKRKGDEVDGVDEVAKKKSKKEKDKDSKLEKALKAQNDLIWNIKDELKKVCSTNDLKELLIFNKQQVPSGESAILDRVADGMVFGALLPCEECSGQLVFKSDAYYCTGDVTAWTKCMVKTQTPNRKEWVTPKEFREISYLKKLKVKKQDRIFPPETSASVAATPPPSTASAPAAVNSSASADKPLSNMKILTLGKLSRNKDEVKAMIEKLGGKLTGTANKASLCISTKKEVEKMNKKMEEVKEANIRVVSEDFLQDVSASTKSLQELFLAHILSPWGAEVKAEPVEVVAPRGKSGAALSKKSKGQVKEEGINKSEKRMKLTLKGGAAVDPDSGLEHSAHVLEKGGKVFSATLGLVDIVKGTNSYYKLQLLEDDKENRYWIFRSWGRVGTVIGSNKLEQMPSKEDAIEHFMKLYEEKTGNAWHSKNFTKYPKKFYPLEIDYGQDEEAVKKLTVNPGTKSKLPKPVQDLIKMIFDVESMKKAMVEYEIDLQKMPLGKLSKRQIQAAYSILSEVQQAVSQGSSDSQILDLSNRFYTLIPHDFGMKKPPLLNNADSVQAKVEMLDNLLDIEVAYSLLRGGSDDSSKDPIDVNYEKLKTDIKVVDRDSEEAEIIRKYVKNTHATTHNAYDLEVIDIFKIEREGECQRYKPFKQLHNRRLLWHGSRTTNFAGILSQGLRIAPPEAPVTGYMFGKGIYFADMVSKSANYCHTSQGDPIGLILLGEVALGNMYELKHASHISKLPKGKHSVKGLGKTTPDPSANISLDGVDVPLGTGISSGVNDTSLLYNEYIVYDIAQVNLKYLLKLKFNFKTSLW
T2 sequence (Q9UGN5 whole entry, the tested form may be a part): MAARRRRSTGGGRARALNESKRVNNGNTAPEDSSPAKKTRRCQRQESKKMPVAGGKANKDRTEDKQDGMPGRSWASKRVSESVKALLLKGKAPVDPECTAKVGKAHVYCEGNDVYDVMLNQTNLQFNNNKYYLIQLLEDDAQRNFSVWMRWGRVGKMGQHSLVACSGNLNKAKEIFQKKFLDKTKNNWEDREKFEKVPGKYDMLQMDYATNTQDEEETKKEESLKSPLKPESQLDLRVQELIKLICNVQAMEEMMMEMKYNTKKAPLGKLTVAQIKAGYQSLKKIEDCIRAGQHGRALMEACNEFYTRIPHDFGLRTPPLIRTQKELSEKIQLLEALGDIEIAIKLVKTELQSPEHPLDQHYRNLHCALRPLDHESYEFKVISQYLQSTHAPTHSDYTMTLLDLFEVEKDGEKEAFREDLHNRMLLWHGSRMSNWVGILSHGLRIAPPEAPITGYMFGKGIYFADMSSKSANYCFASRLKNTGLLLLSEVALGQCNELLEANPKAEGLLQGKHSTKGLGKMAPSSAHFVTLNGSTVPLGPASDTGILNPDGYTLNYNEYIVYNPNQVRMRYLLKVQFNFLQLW

Row | SMILES | IC50 [1, 4] [µM] | Kd ([2]; probe displacement HTRF) [µM] | Kd [3, 5] [µM] | IC50 [1, 6] [µM] | Kd ([2]; PARP2 probe displacement HTRF) [µM] | Kd [3, 7] [µM] | Kd [3, 8] [µM] | Selectivity ([3]; probe displacement HTRF)
1 | CNC(=O)c1ccc(OCCN2CCCC(Cc3nc4ccccc4c(=O)[nH]3)C2)cn1 (single isomer, unassigned) [Compound 14b, N-methyl-5-(2-(3-((4-oxo-3,4-dihydroquinazolin-2-yl)methyl)piperidin-1-yl)ethoxy)picolinamide] | – | – | – | 0.01 to 0.1 | > 10 | – | 0.01 to 0.1 | +++ (+++ indicate a value of at least 100)
2 | CNC(=O)c1ccc(N2CCC(N3CCC(c4nc(C)cc(=O)[nH]4)C3)CC2)cn1 (single isomer, unassigned) [Compound 97a] | – | – | – | > 10 | > 10 | > 10 | – | − (− indicates a value of less than 10)
3 | COCCNC(=O)c1ccc(N2CCC(N3CCC(c4nc5ccccc5c(=O)[nH]4)C3)CC2)cn1 (racemic) [Compound 124rac] | – | – | – | < 0.01 | 0.1 to 1 | < 0.01 | – | +++ (+++ indicate a value of at least 100)
4 | CCc1ccc(C2CCN(CC3CCN(c4ccc(C(=O)NC)nc4)CC3)CC2)[nH]c1=O [Compound 47] | – | – | – | 0.1 to 1 | > 10 | – | 0.1 to 1 | − (− indicates a value of less than 10)
5 | CCc1ccc(C2CCN(C3CCN(c4ccc(C(=O)NC)nc4)CC3)C2)[nH]c1=O (single isomer, unassigned) [Compound 72a] | – | – | – | 0.01 to 0.1 | 1 to 10 | 0.01 to 0.1 | – | +++ (+++ indicate a value of at least 100)
6 | CNC(=O)c1ccc(N2CC(N3CCC(c4nc5ccccc5c(=O)[nH]4)C3)C2)cn1 (single isomer, unassigned) [Compound 61a] | – | – | – | 0.1 to 1 | 1 to 10 | 0.01 to 0.1 | – | + (+ indicates a value of 10 to less than 50)
7 | CNC(=O)c1ccc(N2CCC(N3CCC(c4nc5c(F)cccc5c(=O)[nH]4)C3)CC2)cn1 (single isomer, unassigned) [Compound 121b] | – | – | – | < 0.01 | 0.1 to 1 | < 0.01 | – | +++ (+++ indicate a value of at least 100)
8 | CNC(=O)c1ccc(N2CCC(N3CCC(c4nc5c(C)nn(C)c5c(=O)[nH]4)C3)CC2)cn1 (racemic) [Compound 143rac] | – | – | – | 0.01 to 0.1 | 1 to 10 | < 0.01 | – | +++ (+++ indicate a value of at least 100)
9 | CNC(=O)c1ccc(N2CCC(CN3CCCC(c4nc5ccccc5c(=O)[nH]4)C3)CC2)cn1 (single isomer, unassigned) [Compound 9b] | – | – | – | 0.01 to 0.1 | 0.1 to 1 | 0.01 to 0.1 | – | − (− indicates a value of less than 10)
10 | O=c1[nH]c(CC2CCCN(C3CCC(F)(F)CC3)C2)nc2ccccc12 (single isomer, unassigned) [Compound 11b] | – | – | – | 0.1 to 1 | 1 to 10 | 0.1 to 1 | – | − (− indicates a value of less than 10)

Continued, in another order:

Row | IC50 [1, 4] [µM] | Kd ([2]; probe displacement HTRF) [µM] | Kd [3, 5] [µM] | IC50 [1, 6] [µM] | Kd ([2]; PARP2 probe displacement HTRF) [µM] | Kd [3, 7] [µM] | Kd [3, 8] [µM] | SMILES | Selectivity ([3]; probe displacement HTRF)
11 | 0.01 to 0.1 | > 10 | < 0.01 | – | – | – | – | CCc1ccc(C2(F)CCN(C3CCN(c4ccc(C(=O)NC)nc4F)CC3)C2)[nH]c1=O (racemic) [Compound 415rac] | +++ (+++ indicate a value of at least 100)
12 | < 0.01 | 1 to 10 | < 0.01 | – | – | – | – | CCc1ccc(C2CCN(C3CCN(c4ccc(C(=O)NC5CC5)nc4C#N)CC3)C2)[nH]c1=O (single isomer, unassigned) [Compound 409a] | +++ (+++ indicate a value of at least 100)
13 | – | – | – | 0.01 to 0.1 | > 10 | 0.01 to 0.1 | – | CNC(=O)c1ccc(N2CCC(N3CCCC(c4nc5c(c(=O)[nH]4)CCCC5)C3)CC2)cn1 (single isomer, unassigned) [Compound 146b] | +++ (+++ indicate a value of at least 100)
14 | – | – | – | < 0.01 | 1 to 10 | < 0.01 | – | CNC(=O)c1ccc(N2CCC(N3CCC(c4cc5cccc(F)c5c(=O)[nH]4)C3)CC2)c(C)n1 (single isomer, unassigned) [Compound 206b] | +++ (+++ indicate a value of at least 100)
15 | < 0.01 | > 10 | < 0.01 | – | – | – | – | O=C(NC1CC1)c1ccc(N2CCC(N3CCC(c4cc5cccc(F)c5c(=O)[nH]4)C3)CC2)c(F)n1 (single isomer, unassigned) [Compound 349a] | +++ (+++ indicate a value of at least 100)
16 | < 0.01 | 1 to 10 | < 0.01 | – | – | – | – | CCc1ccc(C2CCN(C3CCN(c4ccc(C(=O)NCC(F)F)nc4F)CC3)C2)[nH]c1=O (single isomer, unassigned) [Compound 398a] | +++ (+++ indicate a value of at least 100)
17 | 0.01 to 0.1 | 0.1 to 1 | 0.01 to 0.1 | – | – | – | – | CNC(=O)c1ccc(N2CCC(N3CCC(c4nc5sc(C)c(C)c5c(=O)[nH]4)C3)CC2)cn1 (single isomer, unassigned) [Compound 221a] | + (+ indicates a value of 10 to less than 50)
18 | < 0.01 | 0.1 to 1 | < 0.01 | – | – | – | – | CCc1ccc(C2CCN(C3CCN(c4ccc(C(=O)NCC(F)F)nc4F)CC3)C2)[nH]c1=O (single isomer, unassigned) [Compound 398b] | +++ (+++ indicate a value of at least 100)
19 | 0.01 to 0.1 | 0.1 to 1 | 0.01 to 0.1 | – | – | – | – | CNC(=O)c1cnc(N2CCC(N3CCC(c4nc5ccccc5c(=O)[nH]4)C3)CC2)nc1 (racemic) [Compound 318rac] | + (+ indicates a value of 10 to less than 50)
20 | 0.01 to 0.1 | 1 to 10 | 0.01 to 0.1 | – | – | – | – | CCc1ccc(C2CCN(C3CCN(c4cnc(C(=O)NC5CC5)c(F)c4)CC3)C2)[nH]c1=O (single isomer, unassigned) [Compound 408b] | + (+ indicates a value of 10 to less than 50)
21 | < 0.01 | 0.1 to 1 | < 0.01 | – | – | – | – | CNC(=O)c1ccc(N2CCC(N3CCC(c4cc5ccc(F)cc5c(=O)[nH]4)C3)CC2)c(C#N)n1 (single isomer, unassigned) [Compound 396b] | +++ (+++ indicate a value of at least 100)
22 | < 0.01 | 0.1 to 1 | < 0.01 | – | – | – | – | CNC(=O)c1ccc(N2CCC(N3CCC(c4[nH]c(=O)c5c(F)cccc5c4F)C3)CC2)c(F)n1 (single isomer, unassigned) [Compound 402a] | +++ (+++ indicate a value of at least 100)
23 | – | – | – | 0.01 to 0.1 | 0.1 to 1 | 0.01 to 0.1 | – | CNC(=O)c1ccc(N2CCC(N3CCC(c4nc5c(F)cc(F)cc5c(=O)[nH]4)C3)CC2)cn1 (single isomer, unassigned) [Compound 181a] | + (+ indicates a value of 10 to less than 50)
24 | < 0.01 | 0.01 to 0.1 | < 0.01 | – | – | – | – | CNC(=O)c1ncc(N2CCC(N3CCC(c4cc5ccc(F)cc5c(=O)[nH]4)C3)CC2)cc1F (single isomer, unassigned) [Compound 395b] | ++ (++ indicates a value of 50 to less than 100)
25 | < 0.01 | 0.1 to 1 | < 0.01 | – | – | – | – | CNC(=O)c1ccc(N2CCC(N3CCC(c4nc5ccc(F)c(F)c5c(=O)[nH]4)C3)CC2)cn1 (single isomer, unassigned) [Compound 222a] | + (+ indicates a value of 10 to less than 50)
